Measurements reported in patent publication US12275686B2, “NO donor compound, preparation method thereof, pharmaceutical composition comprising same, and use thereof” (SOUTHEAST UNIVERSITY, priority 2022, dated 2025).

Experiments:
[1] = system: heart of mouse hypoxia model; experiment: NO release level in the heart of mouse hypoxia model, NO detection kit; assay type: in vivo; conditions: mouse hypoxia model (85 mg/kg isoproterenol), 20 mg/kg intraperitoneally before modeling, FIG. 2
From the text: NO detection kit (Biyuntian Biotechnology Co., Ltd., Shanghai), heart tissue homogenate of hypoxia modeling and drug-given mouse, and blank control group mouse, and 6-8-week-old male Kunming mouse.
NO has chemical activity and is rapidly converted into NO3^− and NO2^− in the body, and NO2^− is further converted into NO3^−. NO^3− is reduced to NO2^− […], NO2^− has characteristic absorption at 540 nm, the absorbance is detected at 540 nm by a microplate reader, and the NO concentration is calculated using a standard curve.
• (1) Hypoxia model (85 mg/kg isoproterenol), the drug-given group was intraperitoneally injected with 20 mg/kg compound I1 before hypoxia modeling; • (2) Cardiac tissue homogenate protein was obtained by centrifugation at 12,000 rpm for 15 min; • (3) The working solution in the NO detection kit was prepared, the working solution was added to each group of proteins, after incubation, and each group of proteins was detected with an microplate reader to analyze the NO content in each group, as shown in FIG. 2.

[2] = system: mTORC1 and TSC2-P proteins; experiment: Expression level of myocardial injury marker proteins in myocardial hypoxia mouse, Western blot; assay type: in vivo; conditions: hypoxia model mouse pretreated with 20 mg/kg, FIG. 3
From the text: Western Blot gel preparation kit (Biyuntian Biotechnology Co., Ltd., Shanghai), BCA detection kit for protein quantification (Biyuntian Biotechnology Co., Ltd., Shanghai), ionization buffer, wet transfer solution, primary antibody (anti-TSC2-P, Abgent, 1:1000, A-AP3825a; anti-mTORC1, Abcam, 1:1000, ab120224; anti-GAPDH, Bioworld Technology, 1:500, AP0063), secondary antibody (Goat Anti-Rabbit IgG (H+L) HRP, 1:3000, Bioworld Technology, BS13278), 6-8-week-old male Kunming mouse.
The changes of protein expression levels are analyzed based on Western Blot bands.
• (1) Mouse heart tissue protein was extracted and centrifuged at 12,000 rpm for 15 min to collect the protein, the protein was quantified using a BCA kit, and added to boiling water in loading buffer and cook for 5 min for later use; • (2) SDS-PAGE gel was prepared and the sample was loaded to separate protein bands; • (3) After transferring the protein bands to the PVDF membrane, the membrane was blocked with milk to incubate primary and secondary antibodies in sequence. The protein bands were visualized using a chemiluminescence developer to analyze the changes of protein expression in each group, as shown in FIG. 3.

H9c2 cells [3] = experiment: NO release level in H9c2 cells under normoxia or hypoxia, Griess method; assay type: cell-based; conditions: for NO release (%) / NO release amount (%): H9c2 cells, 4 h; for NO release (%): hypoxia (1% O2); for NO release amount (%): normoxia (21% O2)
Description: H9c2 cells were revived, cultured with DMEM medium, and placed in a carbon dioxide incubator to allow the cells to adhere to the wall for growth. After the cells grew to reach an appropriate density, cells were inoculated in a multi-well plate and placed in the carbon dioxide incubator for culture for 24 h at 37° C., 5% CO2, and saturated humidity until the cells adhered to the wall, the supernatant was discarded, and 2 mL of fresh DMEM medium was added. Then, a certain concentration (5, 10, 15 μM) of compounds and the reference drug of isosorbide dinitrate were added. After culturing in a normoxic incubator (37° C., 21% O2) or an anoxic incubator (37° C., 1% O2) for 4 h, the supernatant was removed, and the cells in the multi-well plate were collected in 1.5 mL centrifuge tubes and centrifuged at 1000 rpm for 5 min, the supernatant was discarded, 1 mL of PBS was added into the centrifuge tubes to resuspend the cells, and the cells were centrifuged again, the PBS was discarded. 100 μL of cell lysis buffer (special for NO measurement) was added to the centrifuge tubes, placed on ice for half a minute, and then centrifuged for 5 min at 4° C. and 13300 rpm, and the supernatant was collected. 50 μL of the supernatant was taken in a 96-well plate, three parallel groups were set for each sample, and 50 μL of Griess reagent I and 50 μL of Griess reagent II were added in sequence. The OD value of each well was measured at 540 nm with a full-wavelength microplate reader, and the NO concentration was calculated using the standard curve, as shown in Tables 1 and 2.

H9c2 cells [4] = experiment: Vitality of H9c2 cells under normoxia or hypoxia (CCK8); assay type: cell-based; conditions: 4 h; for improvement on the cell viability: normoxic condition, FIG. 1A
Description: The cells were washed twice with 5 mL PBS, 1 mL trypsin was added to digest the monolayer cultured H9c2 cells, a single cell suspension was prepared with serum-containing culture medium, and 5000-10000 cells per well were inoculated in a 96-well culture plate. The volume of culture medium per well is 100 μL, and the edge wells are filled with sterilized pure water. The culture plate was moved into a carbon dioxide incubator for culture for 24 h at 37° C., 5% CO2, and saturated humidity until the cells adhere to the wall. 100 μL culture medium in the well was aspirated, 50 μL fresh culture medium was added into the well, and different concentrations of compounds and reference drug isosorbide dinitrate were given respectively to the well. 50 μL drug was added to each well, 3 parallel groups and 1 normoxic group without drug addition as control were set, and concentration gradient of the drug is 10, 1, 0.1, 0.01, 0.001 μM. The normoxic group was incubated in a normal incubator at 5% CO2 and 37° C. for 4 h; and the hypoxic group was incubated in a hypoxic incubator (concentration of 02≤1%) at 37° C. for 4 h. After the culture was completed, 10 μL CCK8 reagent was added to each well and the normoxic group and the hypoxic group continued to be cultured in a normoxic incubator for 4 h, and the culture was terminated. The absorbance of each well was measured at 450 nm with a microplate reader to calculate the cell survival rate of cells at different concentrations, as shown in FIGS. 1A and 1B.

Compound	NO release (%) (H9c2 cells [3]; compound 5 μM)	NO release (%) (H9c2 cells [3]; compound 10 μM)	NO release (%) (H9c2 cells [3]; compound 15 μM)	NO release amount (%) (H9c2 cells [3]; compound 5 μM)	NO release amount (%) (H9c2 cells [3]; compound 10 μM)	NO release amount (%) (H9c2 cells [3]; compound 15 μM)	other results
CN(N=O)c1ccc(OC(=O)OCc2ccc([N+](=O)[O-])cc2)cc1 [Compound I1, 4-((methylnitroso)amino) phenyl (4-nitrobenzyl) carbonate]	25.24	24.38	20.15	0.24	0.84	0.16	NO level in the heart [1]: significantly higher than that of the other two groups; anti-myocardial hypoxic damage effect [2]: excellent anti-myocardial hypoxic damage effect; expression of mTORC1 in the hearts ([2]; Western blot): restored to near a level of the normal group
CN(N=O)c1ccc(OC(=O)OCc2ccc([N+](=O)[O-])cc2Cl)cc1 [Compound I2, 4-((methylnitroso)amino) phenyl (2-chloro-4-nitrobenzyl) carbonate]	34.75	30.96	27.37	1.58	3.34	0.93	
Cc1cc([N+](=O)[O-])ccc1COC(=O)Oc1ccc(N(C)N=O)cc1 [Compound I3, 4-((methylnitroso)amino) phenyl (2-methyl-4-nitrobenzyl) carbonate]	40.58	45.42	43.21	0.43	0.92	0.32	
CN(N=O)c1ccc(OC(=O)OCc2ccccc2[N+](=O)[O-])cc1 [Compound I4, 4-((methylnitroso)amino) phenyl (2-nitrobenzyl) carbonate]	20.78	20.62	18.33	1.02	2.35	0.98	improvement on the cell viability (H9c2 cells [4]; 1 μM): slight improvement on the cell viability
CN(N=O)c1ccc(OC(=O)OCc2ccc(Cl)cc2[N+](=O)[O-])cc1 [Compound I5, 4-((methylnitroso)amino) phenyl (2-nitro-4-chlorobenzyl) carbonate]		0.96			0.15		
CN(N=O)c1ccc(OC(=O)OCc2ccc(Br)cc2[N+](=O)[O-])cc1 [Compound I6, 4-((methylnitroso)amino) phenyl (2-nitro-4-bromobenzyl) carbonate]		0.94			0.17		
Cc1ccc(COC(=O)Oc2ccc(N(C)N=O)cc2)c([N+](=O)[O-])c1 [Compound I7, 4-((methylnitroso)amino) phenyl (2-nitro-4-methylbenzyl) carbonate]		1.83			0.12		
CN(N=O)c1ccc(OC(=O)OCc2cc(Cl)ccc2[N+](=O)[O-])cc1 [Compound I8, 4-((methylnitroso)amino) phenyl (2-nitro-5-chlorobenzyl) carbonate]		0.93			0.27		
Cc1ccc([N+](=O)[O-])c(COC(=O)Oc2ccc(N(C)N=O)cc2)c1 [Compound I9, 4-((methylnitroso)amino) phenyl (2-nitro-5-methylbenzyl) carbonate]		0.95			0.23		
O=[N+]([O-])O[C@H]1CO[C@H]2[C@@H]1OC[C@H]2O[N+](=O)[O-] [Isosorbide dinitrate, isosorbide dinitrate]							NO release amount (H9c2 cells [3]; hypoxia condition, different concentrations (5, 10, 15 μM)): less than that under the normoxia condition; viability of hypoxic cells (H9c2 cells [4]; hypoxic condition (O2≤1%), 0.001-10 μM, FIG. 1B): a certain improvement on the cell viability at high concentration; improvement on the cell viability (H9c2 cells [4]; 0.001-10 μM): does not improve the cell viability
